ChEMBL document CHEMBL4339189, “Dissymmetric pyridyl-substituted 3,5-bis(arylidene)-4-piperidones as anti-hepatoma agents by inhibiting NF-κB pathway activation” (Eur J Med Chem, 2019)
Activity calls are given as the source filed them. No cut-off for these calls is given here.

Experiments:
RAW264.7 [1] = assay: Antiinflammatory activity in mouse RAW264.7 cells assessed as inhibition of LPS-stimulated TNF-alpha production at 6.0 uM preincubated for 2 hrs followed by LPS stimulaton measured after 22 hrs by ELISA relative to control; assay type: functional
L02 = assay: Cytotoxicity against human LO2 cells assessed as reduction in cell viability incubated for 24 hrs by MTT assay; assay type: cell-based; settings: L02, 24 h
QGY-7703 = assay: Cytotoxicity against human QGY7703 cells assessed as reduction in cell viability incubated for 24 hrs by MTT assay; assay type: functional, cell-based; settings: QGY-7703, 24 h
HepG2 = assay: Cytotoxicity against human HepG2 cells assessed as reduction in cell viability incubated for 24 hrs by MTT assay; assay type: functional, cell-based; settings: HepG2, 24 h
RAW264.7 [2] = assay: Cytotoxicity against mouse RAW264.7 cells assessed as reduction in cell viability at 6.0 uM incubated for 24 hrs by MTT assay; assay type: cell-based; settings: raw264.7, 24 h
[3] = Cytotoxicity against human HHL5 cells assessed as reduction in cell viability incubated for 24 hrs by MTT assay; assay type: cell-based; settings: HHL-5, 24 h
RAW264.7 [4] = assay: Antiinflammatory activity in mouse RAW264.7 cells assessed as inhibition of LPS-stimulated IL-6 production 6.0 uM preincubated for 2 hrs followed by LPS stimulaton measured after 22 hrs by ELISA relative to control; assay type: functional
SMMC-7721 = assay: Cytotoxicity against human SMMC7721 cells assessed as reduction in cell viability incubated for 24 hrs by MTT assay; assay type: functional, cell-based; settings: SMMC-7721, 24 h

In the case of `CN1C/C(=C\c2ccncc2)C(=O)/C(=C/c2cc([N+](=O)[O-])ccc2F)C1`, the inhibition at 6 µM (RAW264.7 [1]) is reported as < 30%, the IC50 (L02) is reported as 17.6 µM and the IC50 (QGY-7703) is reported as 5.7 µM. For the same compound, the IC50 (HepG2) was 5.2 µM, the Activity (RAW264.7 [2]) was “Non-Toxic” and the IC50 [3] was 15.2 µM. The “inhibition (INH)” value (RAW264.7 [4]) was <30% and the IC50 (SMMC-7721) was 14.7 µM.

For `COc1cc(/C=C2\CN(C)C/C(=C\c3ccncc3)C2=O)cc(OC)c1`, the inhibition (RAW264.7 [1]) was “Active”, the IC50 (L02) was 13.4 µM and the IC50 (QGY-7703) was 8.4 µM. For the same compound, the IC50 (HepG2) was 9.5 µM, the Activity (RAW264.7 [2]) was “Non-Toxic” and the IC50 [3] was 11.1 µM. The inhibition (RAW264.7 [4]) was “Active” and the IC50 (SMMC-7721) was 5.81 µM.

In the case of `CN1C/C(=C\c2ccc(C(F)(F)F)cc2)C(=O)/C(=C/c2cccnc2)C1`, the inhibition at 6 µM (RAW264.7 [1]) is reported as < 30%, the IC50 (L02) is reported as 15.6 µM and the IC50 (QGY-7703) is reported as 1.66 µM. For the same compound, the IC50 (HepG2) was 4.79 µM, the Activity (RAW264.7 [2]) was “Non-Toxic” and the IC50 [3] was 14.2 µM. The “inhibition (INH)” value (RAW264.7 [4]) was <30% and the IC50 (SMMC-7721) was 4.83 µM.

With `O=C1/C(=C/c2cccnc2)CN(S(=O)(=O)c2ccccc2)C/C1=C\c1ccccc1C(F)(F)F` the inhibition (RAW264.7 [1]) was “Active”, the IC50 (L02) was 12.5 µM and the IC50 (QGY-7703) was 6.24 µM. For the same compound, the IC50 (HepG2) was 5.37 µM, the Activity (RAW264.7 [2]) was “Non-Toxic” and the IC50 [3] was 14.3 µM. For the same compound, the inhibition (RAW264.7 [4]) was “Active” and the IC50 (SMMC-7721) was 10.9 µM.

In the case of `O=C1/C(=C/c2cccnc2)CN(S(=O)(=O)c2ccc([N+](=O)[O-])cc2)C/C1=C\c1ccccc1F`, the inhibition (RAW264.7 [1]) is reported as “inactive”, the IC50 (L02) is reported as > 20 µM and the IC50 (QGY-7703) is reported as 5.6 µM. The IC50 (HepG2) was 12.8 µM, the Activity (RAW264.7 [2]) was “Non-Toxic” and the IC50 [3] was > 20 µM. For the same compound, the inhibition (RAW264.7 [4]) was “inactive” and the IC50 (SMMC-7721) was > 20 µM.

With `COc1ccc(/C=C2\CN(C)C/C(=C\c3cccnc3)C2=O)c(OC)c1OC` the inhibition (RAW264.7 [1]) was “Active”, the IC50 (L02) was 13.6 µM and the IC50 (QGY-7703) was 2.63 µM. For the same compound, the IC50 (HepG2) was 5.16 µM, the Activity (RAW264.7 [2]) was “Non-Toxic” and the IC50 [3] was 11.6 µM. The inhibition (RAW264.7 [4]) was “Active” and the IC50 (SMMC-7721) was 13.7 µM.

In the case of `O=C1/C(=C/c2cccnc2)CN(S(=O)(=O)c2ccc(Br)cc2)C/C1=C\c1ccccc1C(F)(F)F`, the inhibition (RAW264.7 [1]) is reported as “Active”, the IC50 (L02) is reported as 13.3 µM and the IC50 (QGY-7703) is reported as 5.51 µM. For the same compound, the IC50 (HepG2) was 2.73 µM, the Activity (RAW264.7 [2]) was “Non-Toxic” and the IC50 [3] was 15.5 µM. The inhibition (RAW264.7 [4]) was “Active” and the IC50 (SMMC-7721) was 5.76 µM.

With `O=C1/C(=C/c2cccnc2)CN(S(=O)(=O)c2ccc(Cl)cc2)C/C1=C\c1ccccc1C(F)(F)F` the inhibition (RAW264.7 [1]) was “Active”, the IC50 (L02) was 11.9 µM and the IC50 (QGY-7703) was 3.44 µM. For the same compound, the IC50 (HepG2) was 3.62 µM, the Activity (RAW264.7 [2]) was “Non-Toxic” and the IC50 [3] was 11.1 µM. For the same compound, the inhibition (RAW264.7 [4]) was “Active” and the IC50 (SMMC-7721) was 4.88 µM.

With `CC(=O)Nc1ccc(S(=O)(=O)N2C/C(=C\c3ccncc3)C(=O)/C(=C/c3ccccc3F)C2)cc1` the inhibition (RAW264.7 [1]) was “inactive”, the IC50 (L02) was 12.3 µM and the IC50 (QGY-7703) was 13.7 µM. The IC50 (HepG2) was 11.7 µM, the Activity (RAW264.7 [2]) was “Non-Toxic” and the IC50 [3] was 14.2 µM. For the same compound, the inhibition (RAW264.7 [4]) was “inactive” and the IC50 (SMMC-7721) was 13.4 µM.

For `O=C1/C(=C/c2ccncc2)CN(S(=O)(=O)c2ccc(Cl)cc2)C/C1=C\c1ccccc1F`, the inhibition (RAW264.7 [1]) was “Active”, the IC50 (L02) was 15 µM and the IC50 (QGY-7703) was 12.5 µM. For the same compound, the IC50 (HepG2) was 5.3 µM, the Activity (RAW264.7 [2]) was “Non-Toxic” and the IC50 [3] was 11.5 µM. The inhibition (RAW264.7 [4]) was “Active” and the IC50 (SMMC-7721) was 9.6 µM.

For `Cc1ccc(S(=O)(=O)N2C/C(=C\c3ccncc3)C(=O)/C(=C/c3ccccc3F)C2)cc1`, the inhibition (RAW264.7 [1]) was “inactive”, the IC50 (L02) was > 20 µM and the IC50 (QGY-7703) was > 20 µM. For the same compound, the IC50 (HepG2) was 9.7 µM, the Activity (RAW264.7 [2]) was “Non-Toxic” and the IC50 [3] was 13.3 µM. The inhibition (RAW264.7 [4]) was “inactive” and the IC50 (SMMC-7721) was 13.2 µM.

In the case of `CN1C/C(=C\c2ccncc2)C(=O)/C(=C/c2ccc(C#N)cc2)C1`, the inhibition (RAW264.7 [1]) is reported as “Active”, the IC50 (L02) is reported as 14 µM and the IC50 (QGY-7703) is reported as 7.4 µM. The IC50 (HepG2) was 13.9 µM, the Activity (RAW264.7 [2]) was “Non-Toxic” and the IC50 [3] was 11.5 µM. For the same compound, the inhibition (RAW264.7 [4]) was “Active” and the IC50 (SMMC-7721) was 18.5 µM.

In the case of `O=C1/C(=C/c2ccncc2)CN(S(=O)(=O)c2ccc([N+](=O)[O-])cc2)C/C1=C\c1ccccc1F`, the inhibition (RAW264.7 [1]) is reported as “inactive”, the IC50 (L02) is reported as 18.4 µM and the IC50 (QGY-7703) is reported as 8.8 µM. For the same compound, the IC50 (HepG2) was 11.3 µM, the Activity (RAW264.7 [2]) was “Non-Toxic” and the IC50 [3] was 16 µM. The inhibition (RAW264.7 [4]) was “inactive” and the IC50 (SMMC-7721) was 15.8 µM.

With `CN1C/C(=C\c2cccnc2)C(=O)/C(=C/c2ccc(F)cc2Br)C1` the inhibition (RAW264.7 [1]) was “Active”, the IC50 (L02) was 14.4 µM and the IC50 (QGY-7703) was 2.61 µM. For the same compound, the IC50 (HepG2) was 13 µM, the Activity (RAW264.7 [2]) was “Non-Toxic” and the IC50 [3] was 11.3 µM. For the same compound, the inhibition (RAW264.7 [4]) was “Active” and the IC50 (SMMC-7721) was 20.8 µM.
